Structures can show the parent of a compound that is named as a salt.
Molecular target: T1, AR in VCaP cells (Homo sapiens, UniProt P10275)
T1 construct: endogenous in cells; host or cells: VCaP cells
T1 sequence (P10275 1-920): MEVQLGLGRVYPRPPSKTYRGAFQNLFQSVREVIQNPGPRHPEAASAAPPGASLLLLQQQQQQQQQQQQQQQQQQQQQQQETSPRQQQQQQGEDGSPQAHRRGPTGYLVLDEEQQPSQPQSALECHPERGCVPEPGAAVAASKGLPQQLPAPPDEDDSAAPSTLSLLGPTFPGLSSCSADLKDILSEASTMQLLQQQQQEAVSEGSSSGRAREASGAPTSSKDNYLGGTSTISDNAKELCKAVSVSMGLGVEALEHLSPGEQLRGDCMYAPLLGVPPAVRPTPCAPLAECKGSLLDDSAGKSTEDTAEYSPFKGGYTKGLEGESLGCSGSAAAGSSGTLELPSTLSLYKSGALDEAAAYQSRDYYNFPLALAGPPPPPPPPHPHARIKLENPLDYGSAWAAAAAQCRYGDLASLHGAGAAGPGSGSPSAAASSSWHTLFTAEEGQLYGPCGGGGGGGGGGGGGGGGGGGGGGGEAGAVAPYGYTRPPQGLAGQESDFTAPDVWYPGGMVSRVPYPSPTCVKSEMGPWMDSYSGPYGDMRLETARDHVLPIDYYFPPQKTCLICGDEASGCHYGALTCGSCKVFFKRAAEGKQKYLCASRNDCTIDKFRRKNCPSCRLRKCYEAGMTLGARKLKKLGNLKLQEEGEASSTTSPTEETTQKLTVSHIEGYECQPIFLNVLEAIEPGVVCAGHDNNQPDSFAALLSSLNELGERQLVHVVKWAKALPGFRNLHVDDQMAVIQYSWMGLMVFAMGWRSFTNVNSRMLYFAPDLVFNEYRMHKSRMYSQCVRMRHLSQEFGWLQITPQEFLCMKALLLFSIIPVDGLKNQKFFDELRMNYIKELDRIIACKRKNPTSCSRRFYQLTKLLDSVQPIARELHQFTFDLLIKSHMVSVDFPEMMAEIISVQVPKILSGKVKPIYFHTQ
Test: VCAP AR Degradation Assay (AR ELISA, 24 h)
Type: cell-based
Details: for DC50: concentration giving 50% AR degradation vs DMSO control; for remaining activity at up to 5 µM: lowest measured AR level normalized to DMSO control, top concentration 5 μM, read-out: Y
Procedure: VCAP AR Degradation Assay. Test compounds were pre-dispensed into a Corning CellBind 96-well clear bottom plate (Cat #3300) using an acoustic dispenser to make a 10-point concentration series at 1:3 dilution for each compound. The final top concentration of each compound was 5 μM. DMSO at a final concentration of 0.1% was used as a control. VCaP cells cultured in DMEM with 8% fetal bovine serum (FBS) were seeded at 50K cells per well in a 200 μL volume into the compound plate and incubated at 37° C. in a CO2 incubator for 24 h. The medium was carefully removed from the cells and the plate was placed on ice. One hundred μL of ice-cold 1× cell lysis buffer from Cell Signaling Technologies (Cat #9803) was added to each well of the cells and the plate was incubated at 4° C. on a shaker for 1 h. Fifteen μL of cell lysate was used for AR ELISA detection using a PathScan Total Sandwich AR ELISA kit (Cell Signaling Technology, Cat #12580). AR levels in compound-treated wells were normalized to that of DMSO control and expressed as percent of control (PoC) (y). A Four Parameter Logistic Model (Sigmoidal Dose-Response Model) was used to determine the compound's DC50, and EC50, using the following equation: […]
The lowest measured AR level normalized to DMSO control in response to compound treatment, termed Y value, was used to characterize the compound-mediated AR degradation efficiency.

Compound	DC50	remaining activity at up to 5 µM
C[C@@H]1CN(CCO[C@H]2CC[C@H](N3C(=S)N(c4ccc(C#N)c(C(F)(F)F)c4)C(=O)C3(C)C)CC2)C[C@H](C)N1CC(=O)Nc1ccc(N2CCC(=O)NC2=O)nc1 [Cmpd 1, 2-((2R,6S)-4-(2-((trans-4-(3-(4-Cyano-3-(trifluoromethyl)phenyl)-5,5-dimethyl-4-oxo-2-thioxoimidazolidin-1-yl)cyclohexyl)oxy)ethyl)-2,6-dimethylpiperazin-1-yl)-N-(6-(2,4-dioxotetrahydropyrimidin-1(2H)-yl)pyridin-3-yl)acetamide]	100 to 10000 nM	30 to 70%
C[C@@H]1CN(CCO[C@H]2CC[C@H](N3C(=S)N(c4ccc(C#N)c(C(F)(F)F)c4)C(=O)C3(C)C)CC2)C[C@H](C)N1CC(=O)Nc1ccc(C2CCC(=O)NC2=O)nc1 (stereo partly drawn) [Cmpd 2, 2-((2R,6S)-4-(2-((trans-4-(3-(4-Cyano-3-(trifluoromethyl)phenyl)-5,5-dimethyl-4-oxo-2-thioxoimidazolidin-1-yl)cyclohexyl)oxy)ethyl)-2,6-dimethylpiperazin-1-yl)-N-(6-(2,6-dioxopiperidin-3-yl)pyridin-3-yl)acetamide hydrochloride]	5 to 10 nM	30 to 70%
C[C@@H]1CN(CCC[C@H]2CC[C@H](N3C(=S)N(c4ccc(C#N)c(C(F)(F)F)c4)C(=O)C3(C)C)CC2)C[C@H](C)N1CC(=O)Nc1ccc(C2CCC(=O)NC2=O)nc1 (stereo partly drawn) [Cmpd 3, 2-((2R,6S)-4-(3-(trans-4-(3-(4-Cyano-3-(trifluoromethyl)phenyl)-5,5-dimethyl-4-oxo-2-thioxoimidazolidin-1-yl)cyclohexyl)propyl)-2,6-dimethylpiperazin-1-yl)-N-(6-(2,6-dioxopiperidin-3-yl)pyridin-3-yl)acetamide]	5 to 10 nM	30 to 70%
C[C@@H]1CN(CCCO[C@H]2CC[C@H](N3C(=S)N(c4cnc(C#N)c(C(F)(F)F)c4)C(=O)C3(C)C)CC2)C[C@H](C)N1CC(=O)Nc1ccc(C2CCC(=O)NC2=O)nc1 (stereo partly drawn) [Cmpd 4, 2-((2R,6S)-4-(3-((trans-4-(3-(6-Cyano-5-(trifluoromethyl)pyridin-3-yl)-5,5-dimethyl-4-oxo-2-thioxoimidazolidin-1-yl)cyclohexyl)oxy)propyl)-2,6-dimethylpiperazin-1-yl)-N-(6-(2,6-dioxopiperidin-3-yl)pyridin-3-yl)acetamide hydrochloride]	≤ 5 nM	20 to 30%
C[C@@H]1CN(CCCO[C@H]2CC[C@H](N3C(=S)N(c4ccc(C#N)c(C(F)(F)F)c4)C(=O)C3(C)C)CC2)C[C@H](C)N1CC(=O)Nc1ccc(C2CCC(=O)NC2=O)nc1 (stereo partly drawn) [Cmpd 5, 2-((2R,6S)-4-(3-((trans-4-(3-(4-Cyano-3-(trifluoromethyl)phenyl)-5,5-dimethyl-4-oxo-2-thioxoimidazolidin-1-yl)cyclohexyl)oxy)propyl)-2,6-dimethylpiperazin-1-yl)-N-(6-(2,6-dioxopiperidin-3-yl)pyridin-3-yl)acetamide hydrochloride]	≤ 5 nM	20 to 30%
C[C@@H]1CN(CCO[C@H]2CC[C@H](N3C(=S)N(c4cnc(C#N)c(Cl)c4)C(=O)C3(C)C)CC2)C[C@H](C)N1CC(=O)Nc1ccc(C2CCC(=O)NC2=O)nc1 (stereo partly drawn) [Cmpd 6, 2-((2R,6S)-4-(2-((trans-4-(3-(5-Chloro-6-cyanopyridin-3-yl)-5,5-dimethyl-4-oxo-2-thioxoimidazolidin-1-yl)cyclohexyl)oxy)ethyl)-2,6-dimethylpiperazin-1-yl)-N-(6-(2,6-dioxopiperidin-3-yl)pyridin-3-yl)acetamide hydrochloride]	≤ 5 nM	20 to 30%
C[C@@H]1CN(CCCO[C@H]2CC[C@H](N3C(=S)N(c4ccc(C#N)c(Cl)c4)C(=O)C3(C)C)CC2)C[C@H](C)N1CC(=O)Nc1ccc(C2CCC(=O)NC2=O)nc1 (stereo partly drawn) [Cmpd 7, 2-((2R,6S)-4-(3-((trans-4-(3-(3-Chloro-4-cyanophenyl)-5,5-dimethyl-4-oxo-2-thioxoimidazolidin-1-yl)cyclohexyl)oxy)propyl)-2,6-dimethylpiperazin-1-yl)-N-(6-(2,6-dioxopiperidin-3-yl)pyridin-3-yl)acetamide hydrochloride]	≤ 5 nM	0 to 20%
C[C@@H]1CN(CCC[C@H]2CC[C@H](N3C(=S)N(c4cnc(C#N)c(C(F)(F)F)c4)C(=O)C3(C)C)CC2)C[C@H](C)N1CC(=O)Nc1ccc(C2CCC(=O)NC2=O)nc1 (stereo partly drawn) [Cmpd 8, 2-((2R,6S)-4-(3-(trans-4-(3-(6-Cyano-5-(trifluoromethyl)pyridin-3-yl)-5,5-dimethyl-4-oxo-2-thioxoimidazolidin-1-yl)cyclohexyl)propyl)-2,6-dimethylpiperazin-1-yl)-N-(6-(2,6-dioxopiperidin-3-yl)pyridin-3-yl)acetamide hydrochloride]	≤ 5 nM	20 to 30%
C[C@@H]1CN(CCO[C@H]2CC[C@H](N3C(=S)N(c4ccc(C#N)c(C(F)(F)F)c4)C(=O)C3(C)C)CC2)C[C@H](C)N1CCC(=O)Nc1ccc(N2CCC(=O)NC2=O)nc1 [Cmpd 9, 3-((2R,6S)-4-(2-((trans-4-(3-(4-Cyano-3-(trifluoromethyl)phenyl)-5,5-dimethyl-4-oxo-2-thioxoimidazolidin-1-yl)cyclohexyl)oxy)ethyl)-2,6-dimethylpiperazin-1-yl)-N-(6-(2,4-dioxotetrahydropyrimidin-1(2H)-yl)pyridin-3-yl)propanamide]	10 to 100 nM	30 to 70%
C[C@@H]1CN(CCC[C@H]2CC[C@H](N3C(=S)N(c4ccc(C#N)c(Cl)c4)C(=O)C3(C)C)CC2)C[C@H](C)N1CC(=O)Nc1ccc(C2CCC(=O)NC2=O)nc1 (stereo partly drawn) [Cmpd 10, 2-((2R,6S)-4-(3-(trans-4-(3-(3-Chloro-4-cyanophenyl)-5,5-dimethyl-4-oxo-2-thioxoimidazolidin-1-yl)cyclohexyl)propyl)-2,6-dimethylpiperazin-1-yl)-N-(6-(2,6-dioxopiperidin-3-yl)pyridin-3-yl)acetamide hydrochloride]	10 to 100 nM	30 to 70%
C[C@@H]1CN(CCC[C@H]2CC[C@H](N3C(=S)N(c4cnc(C#N)c(Cl)c4)C(=O)C3(C)C)CC2)C[C@H](C)N1CC(=O)Nc1ccc(C2CCC(=O)NC2=O)nc1 (stereo partly drawn) [Cmpd 11, 2-((2S,6R)-4-(3-(trans-4-(3-(5-Chloro-6-cyanopyridin-3-yl)-5,5-dimethyl-4-oxo-2-thioxoimidazolidin-1-yl)cyclohexyl)propyl)-2,6-dimethylpiperazin-1-yl)-N-(6-(2,6-dioxopiperidin-3-yl)pyridin-3-yl)acetamide hydrochloride]	≤ 5 nM	20 to 30%
C[C@@H]1CN(CCCO[C@H]2CC[C@H](N3C(=S)N(c4ccc(C#N)c(C(F)(F)F)c4)C(=O)C3(C)C)CC2)C[C@H](C)N1CC(=O)Nc1ccc(N2CCC(=O)NC2=O)nc1 [Cmpd 12, 2-((2R,6S)-4-(3-((trans-4-(3-(4-Cyano-3-(trifluoromethyl)phenyl)-5,5-dimethyl-4-oxo-2-thioxoimidazolidin-1-yl)cyclohexyl)oxy)propyl)-2,6-dimethylpiperazin-1-yl)-N-(6-(2,4-dioxotetrahydropyrimidin-1(2H)-yl)pyridin-3-yl)acetamide hydrochloride]	100 to 10000 nM	30 to 70%
CC1(C)C(=O)N(c2ccc(C#N)c(C(F)(F)F)c2)C(=S)N1[C@H]1CC[C@H](OCCN2CCN(CC(=O)Nc3ccc(C4CCC(=O)NC4=O)nc3)[C@@H](C(F)(F)F)C2)CC1 (stereo partly drawn) [Cmpd 13, 2-((R)-4-(2-((trans-4-(3-(4-Cyano-3-(trifluoromethyl)phenyl)-5,5-dimethyl-4-oxo-2-thioxoimidazolidin-1-yl)cyclohexyl)oxy)ethyl)-2-(trifluoromethyl)piperazin-1-yl)-N-(6-(2,6-dioxopiperidin-3-yl)pyridin-3-yl)acetamide hydrochloride]	5 to 10 nM	20 to 30%
